US20040082635A1, “Fused cyclic compounds and medicinal use thereof” (priority 2001, published 2004)
Counter-ions that a name gives are not always drawn.

Target: T1, HCV polymerase (Hepatitis C virus genotype 1b, UniProt P26663)
T1 construct: a region encoding NS5B (591 amino acids; J Virol 1991 Mar, 65(3), 1105-13) was amplified by PCR; 6 His (N); made in house; host or cells: Escherichia coli
Experiment: biochemical
Details: read-out: HCV polymerase inhibitory activity IC50

T1 sequence (P26663 2420-3010): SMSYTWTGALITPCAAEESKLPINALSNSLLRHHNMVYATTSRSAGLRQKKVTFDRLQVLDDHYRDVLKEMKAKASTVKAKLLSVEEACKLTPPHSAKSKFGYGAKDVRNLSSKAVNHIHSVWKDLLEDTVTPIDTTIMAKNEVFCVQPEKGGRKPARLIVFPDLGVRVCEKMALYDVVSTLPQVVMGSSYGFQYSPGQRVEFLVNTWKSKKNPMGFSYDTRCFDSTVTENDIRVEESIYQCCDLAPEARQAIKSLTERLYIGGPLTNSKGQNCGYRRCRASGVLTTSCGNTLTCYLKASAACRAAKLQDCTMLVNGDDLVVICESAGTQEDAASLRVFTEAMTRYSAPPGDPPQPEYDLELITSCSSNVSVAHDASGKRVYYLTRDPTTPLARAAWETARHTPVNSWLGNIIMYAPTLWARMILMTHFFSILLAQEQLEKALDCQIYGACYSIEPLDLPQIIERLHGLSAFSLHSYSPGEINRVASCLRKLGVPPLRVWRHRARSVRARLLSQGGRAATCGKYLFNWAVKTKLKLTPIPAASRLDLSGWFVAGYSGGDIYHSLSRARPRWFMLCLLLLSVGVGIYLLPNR

**Q.** `COc1ccc(-c2ccc(C(=O)O)cc2)c(COc2ccc(-c3nc4cc(C(=O)O)ccc4n3C3CCCCC3)cc2)c1` [Example 306, 2-{4-[2-(4-carboxyphenyl)-5-methoxybenzyloxy]phenyl}-1-cyclohexylbenzimidazole-5-carboxylic acid] was tested. Which IC50 did it give?
**A.** Its IC50 is 13 nM.

**Q.** `O=C(O)c1ccc2c(c1)nc(-c1ccc(Oc3cccc(-c4cccnc4)c3)cc1)n2C1CCCCC1` [Example 214, 1-cyclohexyl-2-{4-[3-(3-pyridyl)phenoxy]phenyl}benzimidazole-5-carboxylic acid] was tested. Which IC50 did it give?
**A.** The IC50 was 59 nM.

**Q.** Which IC50 does the source give for `CC(C)(C)OC(=O)N1CCC(COc2ccccc2Oc2ccc(-c3nc4cc(C(=O)O)ccc4n3C3CCCCC3)cc2)CC1` [Example 155, 2-{4-[2-{(1-tert-butoxycarbonyl-4-piperidyl)methoxy}phenoxy]-phenyl}-1-cyclohexylbenzimidazole-5-carboxylic acid] here?
**A.** Its IC50 is 530 nM.

**Q.** For `O=C(O)c1ccc(-c2ncccc2COc2ccc(-c3nc4cc(C(=O)O)ccc4n3C3CCCCC3)cc2)cc1` [Example 263, 2-{4-[{2-(4-carboxyphenyl)-3-pyridyl}methoxy]phenyl}-1-cyclohexylbenzimidazole-5-carboxylic acid], which IC50 is on record?
**A.** The IC50 was 35 nM.

**Q.** Which IC50 does the source give for `COCc1ccc(-c2ccc(Cl)cc2COc2ccc(-c3nc4cc(C(=O)O)ccc4n3C3CCCCC3)cc2)cc1` [Example 295, 2-{4-[3-chloro-6-(4-methoxymethylphenyl)benzyloxy]phenyl}-1-cyclohexylbenzimidazole-5-carboxylic acid] here?
**A.** Its IC50 is 45 nM.

**Q.** How did the IC50 turn out when `O=C(O)c1ccc2c(c1)nc(-c1ccc(Oc3cccc(OCC(=O)N4CCCCC4)c3)cc1)n2C1CCCCC1` [Example 197, 1-cyclohexyl-2-{4-[3-(piperidinocarbonylmethoxy)phenoxy]-phenyl}benzimidazole-5-carboxylic acid] was run?
**A.** Its IC50 is 110 nM.

**Q.** Which IC50 does the source give for `CC(=O)N1CCC(COc2ccccc2Oc2ccc(-c3nc4cc(C(=O)O)ccc4n3C3CCCCC3)cc2)CC1` [Example 175, 2-{4-[2-{(1-acetyl-4-piperidyl)methoxy}phenoxy]phenyl}-1-cyclohexylbenzimidazole-5-carboxylic acid] here?
**A.** The IC50 was 290 nM.

**Q.** `COCCOCCOc1ccc(-c2ccc(Cl)cc2)c(COc2ccc(-c3nc4cc(C(=O)O)ccc4n3C3CCCCC3)cc2)c1` [Example 345, 2-{4-[2-(4-chlorophenyl)-5-{2-(2-methoxyethoxy)ethoxy}-benzyloxy]phenyl}-1-cyclohexylbenzimidazole-5-carboxylic acid hydrochloride] was tested. Which IC50 did it give?
**A.** The IC50 was 12 nM.

**Q.** `CC1(C)COC(c2ccc(-c3ccc(Cl)cc3)c(COc3ccc(-c4nc5cc(C(=O)O)ccc5n4C4CCCCC4)cc3)c2)=N1` [Example 353, 2-{4-[2-(4-chlorophenyl)-5-(4,4-dimethyl-2-oxazolin-2-yl)benzyloxy]phenyl}-1-cyclohexylbenzimidazole-5-carboxylic acid dihydrochloride] was tested. Which IC50 did it give?
**A.** The IC50 was 23 nM.

**Q.** `O=C(O)c1ccc(COc2ccc(-c3nc4cc(C(=O)O)ccc4n3C3CCCC3)cc2)cc1` [Example 44, 2-[4-(4-carboxybenzyloxy)phenyl]-1-cyclopentylbenzimidazole-5-carboxylic acid] was tested. Which IC50 did it give?
**A.** The IC50 was 950 nM.

**Q.** How did the IC50 turn out when `CCOC(=O)c1ccc(-c2ccc(Cl)cc2)c(COc2ccc(-c3nc4cc(C(=O)O)ccc4n3C3CCCCC3)cc2)c1` [Example 229, 2-{4-[2-(4-chlorophenyl)-5-ethoxycarbonylbenzyloxy]phenyl}-1-cyclohexylbenzimidazole-5-carboxylic acid] was run?
**A.** Its IC50 is 22 nM.

**Q.** How did the IC50 turn out when `O=C(O[C@@H]1O[C@H](C(=O)O)[C@@H](O)[C@H](O)[C@H]1O)c1ccc2c(c1)nc(-c1ccc(OC(c3cccc(F)c3)c3cccc(F)c3)cc1F)n2C1CCCCC1` [Example 445, {[2-{4-[bis(3-fluorophenyl)methoxy]-2-fluorophenyl}-1-cyclohexylbenzimidazol-5-yl]carbonyl}-β-D-glucuronic acid] was run?
**A.** The IC50 was 330 nM.

**Q.** For `O=C(O)c1ccc2c(c1)nc(-c1ccc(OCc3cc(-c4noc(=O)[nH]4)ccc3-c3ccc(Cl)cc3)cc1F)n2C1CCCCC1` [Example 374, 2-{4-[2-(4-chlorophenyl)-5-(2,5-dihydro-5-oxo-4H-1,2,4-oxadiazol-3-yl)benzyloxy]-2-fluorophenyl}-1-cyclohexylbenzimidazole-5-carboxylic acid hydrochloride], which IC50 is on record?
**A.** Its IC50 is 13 nM.

**Q.** Which IC50 does the source give for `CN(C)C(=O)c1cccc(C(Oc2ccc(-c3nc4cc(C(=O)O)ccc4n3C3CCCCC3)c(F)c2)c2ccc(F)cc2)c1` (stereo not shown) [Example 442, 2-{4-[(3-dimethylcarbamoylphenyl)(4-fluorophenyl)methoxy]-2-fluorophenyl}-1-cyclohexylbenzimidazole-5-carboxylic acid hydrochloride] here?
**A.** Its IC50 is 24 nM.

**Q.** Which IC50 does the source give for `O=C(O)c1ccc2c(c1)nc(-c1ccc(OCc3cc(C(=O)N4CCC(O)CC4)ccc3-c3ccc(Cl)cc3)cc1F)n2C1CCCCC1` [Example 289, 2-{4-[2-(4-chlorophenyl)-5-(4-hydroxypiperidino)-carbonylbenzyloxy]-2-fluorophenyl}-1-cyclohexylbenzimidazole-5-carboxylic acid] here?
**A.** The IC50 was < 10 nM.

**Q.** For `CCN(CC)C(=O)c1ccc(-c2ccc(Cl)cc2)c(COc2ccc(-c3nc4cc(C(=O)O)ccc4n3C3CCCCC3)c(F)c2)c1` [Example 284, 2-{4-[2-(4-chlorophenyl)-5-diethylcarbamoylbenzyloxy]-2-fluorophenyl}-1-cyclohexylbenzimidazole-5-carboxylic acid], which IC50 is on record?
**A.** The IC50 was 14 nM.

**Q.** `CC(C)NS(=O)(=O)c1ccc(-c2ccc(Cl)cc2)c(COc2ccc(-c3nc4cc(C(=O)O)ccc4n3C3CCCCC3)c(F)c2)c1` [Example 409, 2-{4-[2-(4-chlorophenyl)-5-(isopropylaminosulfonyl)benzyloxy]-2-fluorophenyl}-1-cyclohexylbenzimidazole-5-carboxylic acid hydrochloride] was tested. Which IC50 did it give?
**A.** The IC50 was 20 nM.

**Q.** How did the IC50 turn out when `O=C(O)c1ccc(-c2ccc(Cl)cc2)c(COc2ccc(-c3nc4cc(C(=O)O)ccc4n3C3CCCCC3)c(F)c2)c1` [Example 305, 2-{4-[5-carboxy-2-(4-chlorophenyl)benzyloxy]-2-fluorophenyl}-1-cyclohexylbenzimidazole-5-carboxylic acid] was run?
**A.** The IC50 was 10 nM.

**Q.** How did the IC50 turn out when `O=C(O)c1ccc2c(c1)nc(-c1ccc(OC[C@@H]3CCCN3C(=O)c3ccccc3)cc1)n2C1CCCCC1` [Example 194, 2-{4-[{(2S)-1-benzoyl-2-pyrrolidinyl}methoxy]phenyl}-1-cyclohexylbenzimidazole-5-carboxylic acid] was run?
**A.** Its IC50 is 520 nM.

**Q.** How did the IC50 turn out when `O=C(O)c1ccc2c(c1)nc(-c1ccc(N(Cc3ccccc3)Cc3ccccc3)cc1)n2C1CCCCC1` [Example 87, 1-cyclohexyl-2-[4-(dibenzylamino)phenyl]benzimidazole-5-carboxylic acid] was run?
**A.** The IC50 was 800 nM.

**Q.** `CN(C)C(=O)COCc1nc(-c2ccc(F)cc2)c(COc2ccc(-c3nc4cc(C(=O)O)ccc4n3C3CCCCC3)cc2)s1` [Example 426, 2-{4-[{2-[{(dimethylcarbamoyl)methoxy}methyl]-4-(4-fluorophenyl)thiazol-5-yl}methoxy]phenyl}-1-cyclohexylbenzimidazole-5-carboxylic acid hydrochloride] was tested. Which IC50 did it give?
**A.** Its IC50 is 53 nM.

**Q.** `Cc1cc(OCc2ccccc2-c2ccc(C(F)(F)F)cc2)ccc1-c1nc2cc(C(=O)O)ccc2n1C1CCCCC1` [Example 144, 1-cyclohexyl-2-{2-methyl-4-[2-(4-trifluoromethylphenyl)-benzyloxy]phenyl}benzimidazole-5-carboxylic acid] was tested. Which IC50 did it give?
**A.** The IC50 was 190 nM.

**Q.** For `O=C(O)c1cccc(-c2ccc(Cl)cc2COc2ccc(-c3nc4cc(C(=O)O)ccc4n3C3CCCCC3)cc2)c1` [Example 296, 2-{4-[2-(3-carboxyphenyl)-5-chlorobenzyloxy]phenyl}-1-cyclohexylbenzimidazole-5-carboxylic acid], which IC50 is on record?
**A.** Its IC50 is 34 nM.

**Q.** `CN(C)C(=O)c1ccc(-c2ccc(S(C)(=O)=O)cc2)c(COc2ccc(-c3nc4cc(C(=O)O)ccc4n3C3CCCCC3)cc2)c1` [Example 271, 2-{4-[3-dimethylcarbamoyl-6-(4-methanesulfonylphenyl)benzyloxy]-phenyl}-1-cyclohexylbenzimidazole-5-carboxylic acid hydrochloride] was tested. Which IC50 did it give?
**A.** Its IC50 is 24 nM.

**Q.** `O=C(O)c1ccc2c(c1)nc(-c1ccc(OCc3ccc(Cl)s3)cc1)n2C1CCCC1` [Example 46, 2-{4-[(2-chloro-5-thienyl)methoxy]phenyl}-1-cyclopentylbenzimidazole-5-carboxylic acid] was tested. Which IC50 did it give?
**A.** The IC50 was 470 nM.

**Q.** `CCC(=O)N(CC)c1ccc(-c2ccc(Cl)cc2)c(COc2ccc(-c3nc4cc(C(=O)O)ccc4n3C3CCCCC3)c(F)c2)c1` [Example 467, 2-[4-{2-(4-chlorophenyl)-5-[N-ethyl-N-(ethylcarbonyl)amino]-benzyloxy}-2-fluorophenyl]-1-cyclohexylbenzimidazole-5-carboxylic acid hydrochloride] was tested. Which IC50 did it give?
**A.** Its IC50 is 32 nM.

**Q.** With `CC(C)(C)OC(=O)N1CCC(COc2cccc(Oc3ccc(-c4nc5cc(C(=O)O)ccc5n4C4CCCCC4)cc3)c2)CC1` [Example 156, 2-{4-[3-{(1-tert-butoxycarbonyl-4-piperidyl)methoxy}phenoxy]-phenyl}-1-cyclohexylbenzimidazole-5-carboxylic acid] as the compound, how does the IC50 read?
**A.** The IC50 was 230 nM.

**Q.** `CN(C)C(=O)c1ccc(-c2ccc(Cl)s2)c(COc2ccc(-c3nc4cc(C(=O)O)ccc4n3C3CCCCC3)cc2)c1` [Example 362, 2-{4-[2-(5-chlorothiophen-2-yl)-5-(dimethylcarbamoyl)benzyloxy]-phenyl}-1-cyclohexylbenzimidazole-5-carboxylic acid hydrochloride] was tested. Which IC50 did it give?
**A.** The IC50 was 20 nM.

**Q.** How did the IC50 turn out when `O=C(O)c1ccc2c(c1)nc(-c1ccc(OCc3ccc(C(=O)N4CCCCC4)cc3-c3ccc(Cl)cc3)cc1)n2C1CCCCC1` [Example 351, 2-{4-[2-(4-chlorophenyl)-4-(piperidinocarbonyl)benzyloxy]phenyl}-1-cyclohexylbenzimidazole-5-carboxylic acid hydrochloride] was run?
**A.** The IC50 was 19 nM.

**Q.** With `O=C(O)c1ccc2c(c1)nc(-c1ccc(OCc3ccc(F)cc3C(=O)c3cccc(F)c3)cc1F)n2C1CCCCC1` [Example 256, 1-cyclohexyl-2-{2-fluoro-4-[4-fluoro-2-(3-fluorobenzoyl)benzyloxy]phenyl}benzimidazole-5-carboxylic acid] as the compound, how does the IC50 read?
**A.** The IC50 was 79 nM.

**Q.** For `O=C(O)c1ccc2c(c1)nc(-c1ccc(OCCc3ccc4ccccc4c3)cc1)n2C1CCCCC1` [Example 85, 1-cyclohexyl-2-{4-[2-(2-naphthyl)ethoxy]phenyl}benzimidazole-5-carboxylic acid], which IC50 is on record?
**A.** Its IC50 is 170 nM.
